IC50 and IC90 data for 28 compounds are collected here from ChEMBL document CHEMBL4483862, “Open-source discovery of chemical leads for next-generation chemoprotective antimalarials” (2018).

One may read the IC50 as the concentration that inhibits the measured activity by half. Usually IC90 stands for the point of the concentration-response curve where the effect stands at 90%.

For this test, the system named is Plasmodium berghei. Nature of the test: Luciferase/luciferin-expressing antifolate-resistant parasites were used to infect a culture of HepG2 cells that were pre-incubated with compounds. Infected hepatocytes emit light due to the luciferase reaction. Assay results are presented as the percent inhibition of light emission compared to control. […]. It is filed as functional. As to conditions: sporozoite; for IC90: read-out: LUCIFERASE INFECTION ASSAY - IC90.

[1] abbreviates: read-out: LUCIFERASE INFECTION ASSAY - IC50.

As to `CCCCCc1nnc(NC(=O)c2nccnc2N)s1`, the IC90 was found to be 4.56 µM. Also, the IC50 (HEPG2TOX_HILL_SLOPE 7.97, HEPG2TOX_R_SQUARED 0.296, PBLUC_HILL_SLOPE 11.4, PBLUC_R_SQUARED 0.31, read-out: LUCIFERASE INFECTION ASSAY - IC50) amounted to 3.76 µM.

For the compound `FC(F)(F)c1nc(NCCNc2ccccn2)c2ccccc2n1`, the IC90 was 5.48 µM. Besides, the IC50 (HEPG2TOX_HILL_SLOPE 0.531, HEPG2TOX_R_SQUARED 0.801, PBLUC_HILL_SLOPE 0.677, PBLUC_R_SQUARED 0.347, read-out: LUCIFERASE INFECTION ASSAY - IC50) turned out to be 0.214 µM.

Consider `CCCCn1c(SCC(=O)Nc2cc(C(F)(F)F)ccc2N2CCOCC2)nc2ccccc21`, for which the IC90 is greater than 10 µM. For the same compound, under setting [1], the IC50 is greater than 10 µM.

As for `COC(=O)c1cnc(Sc2n[nH]c(=O)n2C2CCCCC2)c([N+](=O)[O-])c1`, the IC90 was greater than 8.7 µM. Also, the IC50 under setting [1] is greater than 8.7 µM.

On to `N#C/C(=C1/SC=C(c2ccc(-c3ccccc3)cc2)N1c1ccccc1)c1nnc2n1CCCCC2`, for which the IC90 was 3.6 µM. Moreover, for the setting “HEPG2TOX_HILL_SLOPE 7.81, HEPG2TOX_R_SQUARED 0.359, PBLUC_HILL_SLOPE 26.3, PBLUC_R_SQUARED 0.88, read-out: LUCIFERASE INFECTION ASSAY - IC50”, the IC50 was found to be 3.31 µM.

For the compound `O=C1C=CC(=O)N1c1ccc(Cl)cc1Br`, the IC90 amounted to 8.68 µM. Further, the IC50 (FFLUC_HILL_SLOPE 1.45, FFLUC_R_SQUARED 0.668, PBLUC_HILL_SLOPE 3.96, PBLUC_R_SQUARED 0.503, read-out: LUCIFERASE INFECTION ASSAY - IC50) came out at 4.99 µM.

For the compound `CN(C)C(=O)c1cccc(-c2cn3c(-c4ccc(N(C)C)cc4)cnc3cn2)c1`, the IC90 was 7.57 µM. Further, the IC50 under setting [1] was 4.36 µM.

Turning to `N#Cc1ccc(-c2cnc3cnc(-c4cccs4)cn23)cc1`, the IC90 stood at 9.18 µM. In addition, the IC50 (PBLUC_HILL_SLOPE 3.09, PBLUC_R_SQUARED 0.489, read-out: LUCIFERASE INFECTION ASSAY - IC50) is 4.51 µM.

As for `CN(C)CCN1CCN(c2cccc(-c3ccc(-c4ccccc4)cc3)n2)CC1`, the concentration for an effect of 90% (IC90) was greater than 8.54 µM. In addition, the IC50 under setting [1] was determined as 5.35 µM.

For `COc1cc(/C=N/NC(=S)NC2CC3CC2C2C=CCC32)ccc1O` (stereo unspecified), the IC90 is greater than 9.23 µM. Also, the IC50 (PBLUC_HILL_SLOPE 5.25, PBLUC_R_SQUARED 0.0239, read-out: LUCIFERASE INFECTION ASSAY - IC50) was greater than 9.23 µM.

As to `CN(CC(=O)Nc1c(Cl)cccc1Cl)C(=O)c1cccc(Oc2cccc(C(F)(F)F)c2)c1`, the IC90 was determined as 6.4 µM. For the same compound, the IC50 (PBLUC_HILL_SLOPE 97.2, PBLUC_R_SQUARED 0.277, read-out: LUCIFERASE INFECTION ASSAY - IC50) is 6.26 µM.

For the compound `Cc1nn(Cc2ccccc2)c(Cl)c1/C=C/C(=O)OC(C)C(=O)N1CCCC1` (stereo unspecified), the IC90 is 4.19 µM. Also, the IC50 (PBLUC_HILL_SLOPE 3.98, PBLUC_R_SQUARED 0.412, read-out: LUCIFERASE INFECTION ASSAY - IC50) is 2.41 µM.

`O=c1c(Cl)c(Cl)cnn1-c1c(Cl)cc(C(F)(F)F)cc1Cl`: the IC90 turned out to be 1.61 µM. Besides, under “FFLUC_HILL_SLOPE 19, FFLUC_R_SQUARED 0.471, HEPG2TOX_HILL_SLOPE 2.99, HEPG2TOX_R_SQUARED 0.99, PBLUC_HILL_SLOPE 1.54, PBLUC_R_SQUARED 0.797, read-out: LUCIFERASE INFECTION ASSAY - IC50”, the IC50 is 0.388 µM.

Turning to `Fc1ccc(-c2cnc3cnc(-c4cccs4)cn23)cc1Cl`, the IC90 is greater than 10 µM. In addition, the IC50 (HEPG2TOX_HILL_SLOPE 0.129, HEPG2TOX_R_SQUARED 0.552, PBLUC_HILL_SLOPE 2.11, PBLUC_R_SQUARED 0.543, read-out: LUCIFERASE INFECTION ASSAY - IC50) was found to be 4.6 µM.

As to `CCOc1ccc(N2C(=O)c3ccccc3C(C=NNc3ccc(S(=O)(=O)N(CC)CC)cc3[N+](=O)[O-])C2=O)cc1` (stereo unspecified), the IC90 was greater than 10 µM. Also, the IC50 under setting [1] was greater than 10 µM.

Turning to `CNc1snc(C)c1C(=O)NCc1csc(-c2ccccc2)n1`, the IC90 came out at 4.69 µM. Under “HEPG2TOX_HILL_SLOPE 1.65, HEPG2TOX_R_SQUARED 0.956, PBLUC_HILL_SLOPE 1.96, PBLUC_R_SQUARED 0.757, read-out: LUCIFERASE INFECTION ASSAY - IC50”, the IC50 was found to be 1.53 µM.

For `Cc1cccc(C)c1N1C(=O)C=CC1=O`, the IC90 is greater than 16.4 µM. For the same compound, the IC50 (PBLUC_HILL_SLOPE 2.64, PBLUC_R_SQUARED 0.435, read-out: LUCIFERASE INFECTION ASSAY - IC50) was greater than 16.4 µM.

Consider `Cc1cccc2sc(N(Cc3ccccc3)C(=O)CN3CCN(CC(=O)N4CCCC4)CC3)nc12`, for which the IC90 came to 6.71 µM. The IC50 (PBLUC_HILL_SLOPE 173, PBLUC_R_SQUARED 0.447, read-out: LUCIFERASE INFECTION ASSAY - IC50) stood at 6.63 µM.

In the case of `Cc1cc(C(=O)CSc2nnc(C3CC3)[nH]2)c(C)n1CCC1=CCCCC1`, the IC90 is greater than 10 µM. Moreover, the IC50 under setting [1] is greater than 10 µM.

Turning to `O=C(Nc1cccc(Cl)c1)C1=COC2=NC(=O)N(Cc3ccccc3)CCN12`, the concentration for an effect of 90% (IC90) is greater than 10 µM. In addition, under “HEPG2TOX_HILL_SLOPE 1.91, HEPG2TOX_R_SQUARED 0.961, read-out: LUCIFERASE INFECTION ASSAY - IC50”, the IC50 is greater than 10 µM.

On to `O=C(CSc1nnc(C2CC2)o1)NCCC1=CCCCC1`, for which the IC90 is 3.33 µM. Further, the IC50 (PBLUC_HILL_SLOPE 15.1, PBLUC_R_SQUARED 0.587, read-out: LUCIFERASE INFECTION ASSAY - IC50) stood at 2.88 µM.

Regarding `CNS(=O)(=O)c1ccc(C(=O)Nc2ccc(Nc3ccccc3)cc2)o1`, the 90% effect concentration (IC90) amounted to 1.18 µM. For the setting “HEPG2TOX_HILL_SLOPE 2.07, HEPG2TOX_R_SQUARED 0.347, PBLUC_HILL_SLOPE 43.9, PBLUC_R_SQUARED 0.459, read-out: LUCIFERASE INFECTION ASSAY - IC50”, the IC50 turned out to be 1.12 µM.

Turning to `CCOCCSc1nc(-c2ccccc2)c(-c2ccccc2)[nH]1`, the 90% effect concentration (IC90) is greater than 10 µM. In addition, the IC50 (HEPG2TOX_HILL_SLOPE 2.32, HEPG2TOX_R_SQUARED 0.811, read-out: LUCIFERASE INFECTION ASSAY - IC50) was greater than 10 µM.

`Cc1ccc(C(C)C)cc1OS(=O)(=O)c1ccc(S(=O)(=O)N(C)C)cc1[N+](=O)[O-]`: the IC90 was greater than 10 µM. Further, the IC50 under setting [1] was greater than 10 µM.

`COc1ccc(-c2ccc3nnc(-c4cscn4)n3c2)c(C)c1`: the IC90 is greater than 10 µM. The IC50 under setting [1] is greater than 10 µM.

For the compound `Cc1noc(C)c1-c1nccc2n[nH]c(-c3ccccc3)c12`, the IC90 is greater than 10 µM. In addition, the IC50 (PBLUC_HILL_SLOPE 15.1, PBLUC_R_SQUARED 0.272, read-out: LUCIFERASE INFECTION ASSAY - IC50) worked out at 9.26 µM.

In the case of `O=C(COc1ccc2c3c(c(=O)oc2c1)CCC3)Nc1nc(-c2ccccn2)cs1`, the IC90 is greater than 10 µM. In addition, the IC50 (HEPG2TOX_HILL_SLOPE 8.22, HEPG2TOX_R_SQUARED 0.725, PBLUC_HILL_SLOPE 12.7, PBLUC_R_SQUARED 0.0522, read-out: LUCIFERASE INFECTION ASSAY - IC50) is 9.13 µM.

As to `N#Cc1ccnc(N2CCN(c3ncnc4scc(-c5ccccc5)c34)CC2)c1`, the IC90 is greater than 10 µM. The IC50 under setting [1] was greater than 10 µM.
